Test results as given in ChEMBL document CHEMBL5625254, “Design, synthesis and evaluation of ursodeoxycholic acid-cinnamic acid hybrids as potential anti-inflammatory agents by inhibiting Akt/NF-κB and MAPK signaling pathways” (Eur J Med Chem, 2023).
pIC50: −log10 of the molar value. The source made the active and inactive calls. The calls are words filed in the database; no cut-off is given here.

Columns and labels:
[1] = tested on: RAW264.7; experiment: Anti-inflammatory activity in mouse RAW264.7 cells assessed as decrease in LPS-induced IL-1beta mRNA level incubated for 24 hrs by RT-PCR analysis; assay type: functional, cell-based; conditions: dose 5-20 µM
[2] = tested on: RAW264.7; experiment: Anti-inflammatory activity in mouse RAW264.7 cells assessed as decrease in LPS-induced COX-2 level at 5 to 20 uM incubated for 24 hrs by Western blot analysis; assay type: functional, cell-based; conditions: dose 5-20 µM
[3] = tested on: RAW264.7; experiment: Anti-inflammatory activity in mouse RAW264.7 cells assessed as decrease in LPS-induced JNK phosphorylation at 5 to 20 uM incubated for 24 hrs by Western blot analysis; assay type: functional, cell-based; conditions: dose 5-20 µM
[4] = tested on: RAW264.7; experiment: Anti-inflammatory activity in mouse RAW264.7 cells assessed as decrease in LPS-induced PGE2 level incubated for 24 hrs by ELISA; assay type: functional, cell-based; conditions: dose 5-20 µM
[5] = tested on: RAW264.7; experiment: Anti-inflammatory activity in mouse RAW264.7 cells assessed as decrease in LPS-induced IL-6 level incubated for 24 hrs by ELISA; assay type: functional, cell-based; conditions: dose 5-20 µM
[6] = tested on: RAW264.7; experiment: Anti-inflammatory activity in mouse RAW264.7 cells assessed as decrease in LPS-induced IL-1beta level incubated for 24 hrs by ELISA; assay type: functional, cell-based; conditions: dose 5-20 µM
[7] = tested on: RAW264.7; experiment: Anti-inflammatory activity in mouse RAW264.7 cells assessed as decrease in LPS-induced TNF-alpha level incubated for 24 hrs by ELISA; assay type: functional, cell-based; conditions: dose 5-20 µM
[8] = tested on: Mus musculus; experiment: Anti-inflammatory activity in endotoxemia ICR mouse model assessed as decrease in LPS-induced serum IL-6 level at 10 to 20 mg/kg, IG for 7 days consecutively followed by LPS treatment measured after 24 hrs by ELISA; assay type: functional, organism-based; conditions: dose 10-20 mg/kg, time 8.0 day
[9] = tested on: RAW264.7; experiment: Anti-inflammatory activity in mouse RAW264.7 cells assessed as decrease in LPS-induced IL-6 mRNA level incubated for 24 hrs by RT-PCR analysis; assay type: functional, cell-based; conditions: dose 5-20 µM
[10] = tested on: RAW264.7; experiment: Anti-inflammatory activity in mouse RAW264.7 cells assessed as decrease in LPS-induced iNOS level at 5 to 20 uM incubated for 24 hrs by Western blot analysis; assay type: functional, cell-based; conditions: dose 5-20 µM
[11] = tested on: RAW264.7; experiment: Anti-inflammatory activity in LPS-stimulated mouse RAW264.7 cells assessed as increase in I-kappa-B-alpha level at 5 to 20 uM preincubated for 24 hrs followed by LPS treatment for 30 mins by Western blot analysis; assay type: functional, cell-based; conditions: dose 5-20 µM, time 24.5 hrs
[12] = tested on: RAW264.7; experiment: Anti-inflammatory activity in mouse RAW264.7 cells assessed as inhibition of LPS-induced NO production at 10 uM incubated for 24 hrs relative to control; assay type: functional
[13] = tested on: Mus musculus; experiment: Anti-inflammatory activity in endotoxemia ICR mouse model assessed as decrease in LPS-induced serum IL-1beta level at 10 to 20 mg/kg, IG for 7 days consecutively followed by LPS treatment measured after 24 hrs by ELISA; assay type: functional, organism-based; conditions: dose 10-20 mg/kg, time 8.0 day
[14] = tested on: RAW264.7; experiment: Anti-inflammatory activity in LPS-stimulated mouse RAW264.7 cells assessed as decrease in p65 level in nucleus at 5 to 20 uM preincubated for 24 hrs followed by LPS treatment for 30 mins by Western blot analysis; assay type: functional, cell-based; conditions: dose 5-20 µM, time 24.5 hrs
[15] = tested on: RAW264.7; experiment: Anti-inflammatory activity in mouse RAW264.7 cells assessed as decrease in LPS-induced ERK phosphorylation at 5 to 20 uM incubated for 24 hrs by Western blot analysis; assay type: functional, cell-based; conditions: dose 5-20 µM
[16] = tested on: RAW264.7; experiment: Anti-inflammatory activity in mouse RAW264.7 cells assessed as inhibition of LPS-induced NO production incubated for 24 hrs; assay type: functional, cell-based
[17] = tested on: RAW264.7; experiment: Cytotoxicity against mouse RAW264.7 cells assessed as cell viability at 20 uM incubated for 24 hrs by CCK8 assay; assay type: toxicity, cell-based; conditions: raw264.7, 24 h
[18] = tested on: RAW264.7; experiment: Anti-inflammatory activity in mouse RAW264.7 cells assessed as decrease in LPS-induced Akt phosphorylation at 5 to 20 uM preincubated for 24 hrs followed by LPS treatment for 30 mins by Western blot analysis; assay type: functional, cell-based; conditions: dose 5-20 µM, time 24.5 hrs
[19] = tested on: RAW264.7; experiment: Anti-inflammatory activity in mouse RAW264.7 cells assessed as decrease in LPS-induced p38 phosphorylation at 5 to 20 uM incubated for 24 hrs by Western blot analysis; assay type: functional, cell-based; conditions: dose 5-20 µM
[20] = tested on: Mus musculus; experiment: Anti-inflammatory activity in endotoxemia ICR mouse model assessed as decrease in LPS-induced serum TNF-alpha level at 10 to 20 mg/kg, IG for 7 days consecutively followed by LPS treatment measured after 24 hrs by ELISA; assay type: functional, organism-based; conditions: dose 10-20 mg/kg, time 8.0 day
[21] = tested on: RAW264.7; experiment: Effect on total p65 level in cytoplasm of LPS-stimulated mouse RAW264.7 cells at 5 to 20 uM preincubated for 24 hrs followed by LPS treatment for 30 mins by Western blot analysis; assay type: functional, cell-based; conditions: dose 5-20 µM, time 24.5 hrs
[22] = tested on: RAW264.7; experiment: Anti-inflammatory activity in mouse RAW264.7 cells assessed as decrease in LPS-induced COX-2 mRNA level incubated for 24 hrs by RT-PCR analysis; assay type: functional, cell-based; conditions: dose 5-20 µM

Compound: Cc1ccc(/C=C/C(=O)N2CCN(C(=O)CC[C@@H](C)[C@H]3CC[C@H]4[C@@H]5[C@@H](O)C[C@@H]6C[C@H](O)CC[C@]6(C)[C@H]5CC[C@]34C)CC2)cc1
- Activity [1]: Dose-Dependent Effect
- Activity [2]: Active
- Activity [3]: Active
- Activity [4]: Dose-Dependent Effect
- Activity [5]: Dose-Dependent Effect
- Activity [6]: Dose-Dependent Effect
- Activity [7]: Dose-Dependent Effect
- Activity [8]: Active
- Activity [9]: Dose-Dependent Effect
- Activity [10]: Active
- Activity [11]: Active
- inhibition at 10 µM [12]: > 50%
- Activity [13]: Active
- Activity [14]: Active
- Activity [15]: Active
- pIC50 ([16]; RAW264.7, 24 h): 5.11
- inhibition ([16]; dose 1.25-20 µM): Dose-Dependent Effect
- Activity [17]: Non-Toxic
- Activity [18]: Active
- Activity [19]: Active
- Activity [20]: Active
- Activity [21]: inactive
- Activity [22]: Dose-Dependent Effect
